Assay results as given in US10786475B2, “Method for preventing, treating, or improving fatty liver by administering effective amounts of azelaic acid to a subject” (Korea University Research and Business Foundation, priority 2018, dated 2020).

Columns and labels:
[1] = tested on: fatty liver-induced mouse; experiment: Fatty liver inhibitory effect in high-fat diet fatty liver-induced wild-type C57BL/6J mouse; type: in vivo; conditions: WT mouse
Method: Mice used in the example, which were an eight-week-old C57BL/6J model, were purchased from Samtako, and Olfr544 KO mice were manufactured by Macrogen based on the C57BL/6J model using a CRISPR/Cas9 system. All experiments performed in the example are compliant to a protocol approved by the Animal Experiment Ethics Committee at Korea University (Protocol No. KUIACUC-20170322-1). The mice were acclimated at 21 to 25° C. under a 50 to 60% relative humidity condition for 12 hours before being used in the experiments, and a total of 18 mice were treated with an AzA diluted with distilled water at 50 mg/kg of body weight and distilled water as a control through oral administration for 6 weeks. The mice used in the experiments were fed a high-fat diet containing 60% fat (D12492, Research Diets, Inc) to induce fatty liver, and then a body weight was measured every week.
The measurement of the concentration of triglycerides in liver tissue was performed by homogenizing the obtained liver tissue of a mouse in 600 μL of acetone (Daejung, Korea), storing the homogenate at 4° C. for 24 hours, and obtaining a fat part by centrifugation at 12000 rpm for 10 minutes. The fat part was dried, dissolved in 95% ethanol, quantified using a Cobas C11 autoanalyzer (Roche, Basel, Switzerland), and normalized with a liver weight.
RNA was extracted from liver tissue, and the expression of PPARα and PPARα downstream genes such as Acox1, Cpt1a and Hmgcs2 were analyzed by qPCR according to the method of Example 3-1 described above.
To evaluate fatty acid oxidation, 100 mg of liver tissue was homogenized in a 0.25 M cold sucrose solution, centrifuged at 600 rpm and 4° C. thereby obtaining a supernatant, and then 50 μL of 10% Triton X-100 was added to 450 μL of the supernatant. Subsequently, 5 μL of the sample was mixed with 950 μL of 50 mM Tris-HCl, 10 μL of 20 mM NAD, 3 μL of 0.33 M dithiothreitol, 5 μL of 1.5% BSA, 5 μL of 2% Triton X-100, 10 μL of 10 mM CoA, and 10 μL of 1 mM FAD. The mixture was mixed with 2 μL of 5 mM palmitoyl-CoA, reacted at 37° C. and analyzed at 340 nm for 5 minutes using a spectrophotometer.
A C57BL/6J mouse and an Olfr544 KO mouse were treated with HFD and an AzA for 6 weeks and housed in a metabolic cage for three days, and the result at day 3 was analyzed as an experimental result. An oxygen consumption amount (VO2) and a carbon dioxide production amount (VCO2) were analyzed using an Oxylet Physiocage System (Panlab/Harvard apparatus, Cornella, Spain) and suiteMETABOLISM (V2.2.01, Panlab) software. A respiratory quotient (RQ) was calculated using the formula VCO2/VO2, and energy expenditure was analyzed using the formula EE=VO2×1.11×(3.815+1.232×RQ). The oxidation of a free fatty acid was calculated using the formula (1.6946×VO2)−(1.7012×VCO2).
An AzA (100 mg/kg) was intraperitoneally administered, and then concentration of a glycerol, which is a body fat decomposition marker, was measured. […] To measure glucose resistance and insulin resistance, a glucose and insulin resistance test was performed under a condition, in which glucose ([…]) and insulin (0.35 unit/kg/bw) are administered to a mouse.

[2] = tested on: Hepa1c1c-7 cells stimulated by LPS; experiment: IL-6 and TNF-α gene expression (qPCR) in LPS-treated Hepa1c1c-7 cells; type: cell-based, mouse; conditions: compared with control group
Method: 1 μg of RNA extracted from Hepa1c1c-7 hepatocytes was used to synthesize cDNA by using a ReverTra Ace® qPCR RT kit (TOYOBO, Osaka, Japan). More particularly, to increase the efficiency of an RT-PCR reaction, the extracted RNA was treated at 65° C. for 5 minutes, and immediately stored on ice. Afterward, a total of 8 μL of a reaction mixture was prepared with 2 μL of a 4×DNA Master Mix containing a gDNA remover, 0.5 μg of RNA and distilled water (nuclease-free water), and reacted at 37° C. for 5 minutes. And then, a 5×RT Master mix was added to the reaction mixture, reacted at 37° C.-5 min, 50° C.-5 min and 98° C.-5 min to synthesize cDNA.
PCR was performed with the cDNA synthesized by the above-described method using a THUNDERBIRD SYBR qPCR Mix (TOYOBO, Osaka, Japan) and an iQ5 iCycler system (Bio-Rad, California, USA). More particularly, amplification was performed with initial denaturation at 95° C. for 4.5 minutes, and 40 cycles of additional denaturation at the same temperature for 10 seconds, annealing and cooling at 55 to 60° C. for 30 seconds, and elongation at 68° C. for 20 seconds. The expression level of each gene was normalized using GAPDH expression. Primers were designed using the Nucleotide BLAST Software of the National Center for Biotechnology Information (NCBI), and purchased from Bionics (Seoul, Korea).

[3] = tested on: 3T3-L1 cells stimulated by LPS; experiment: IL-6 and TNF-α gene expression (qPCR) in LPS-treated 3T3-L1 adipose cells; type: cell-based, mouse; conditions: LPS-treated 3T3-L1 cells differentiated into adipose cells, compared with control group
Method: 3T3-L1 cells, mouse pre-adipose cells were purchased from the Korean Cell Line Bank (Seoul, Korea). The 3T3-L1 cells were cultured in Dulbecco's modified Eagle's medium (DMEM) supplemented with 10% heat-inactivated bovine calf serum (Gibco, Grand Island, N.Y., USA) and 1% PEST under 5% CO2 at 37° C. The 3T3-L1 pre-adipose cells were seeded on a 6-well plate at 1×10^6 cells/well to differentiate into adipose cells, and cultured to a density of 100%. After 2 days, the cultured 3T3-L1 pre-adipose cells were incubated in DMEM containing 10% fetal bovine serum (FBS) and an MDI solution (0.5 mM IBMX, 0.5 μM dexamethasone and 10 μg/mL insulin) for 3 days. Subsequently, the treated cells were cultured in DMEM containing 10% FBS and 10 μg/mL insulin, and the formation of lipid droplets in cells and the degree thereof were confirmed, and based on this, the differentiation into adipose cells was confirmed. To confirm the expression of IL-6 and TNF-α genes, qRT-PCR was performed by the same methods described in Examples 7-4 and 7-5.

[4] = HFD and AzA for 6 weeks, metabolic cage day 3
[5] = high-fat diet, AzA 50 mg/kg oral, 6 weeks
[6] = high-fat diet, AzA 50 mg/kg oral, 6 weeks, compared with control group

In the case of O=C(O)CCCCCCCC(=O)O [AzA, nonanedioic acid], the “glucose resistance (glucose resistance test)” value [1] is reported as “significantly improved”, the “insulin resistance (insulin resistance test)” value [1] is reported as “significantly improved” and the “abdominal fat (microCT)” value ([1]; AzA 50 mg/kg/day) is reported as “significantly decreased”. The “total fat amount (microCT)” value ([1]; AzA 50 mg/kg/day) was “significantly decreased”, the “blood glycerol concentration (body fat decomposition marker)” value ([1]; AzA 100 mg/kg intraperitoneally) was “stimulated the decomposition of body fats” and the “oxidation of free fatty acids (indirect calorimetric analysis)” value [1, 4] was “increase”. For the same molecule, the “respiratory quotient (indirect calorimetric analysis)” value [1, 4] was “decrease”, the “expression of PPARα and a target gene thereof in liver tissue” value [1, 5] was “significantly increased” and the “triglyceride concentration in liver tissue” value [1, 5] was “decreased”. The body weight [1, 6] was “decreased”, the “fatty acid oxidation rate in liver tissue” value [1, 6] was “increased” and the IL-6 gene expression [2] was “significantly decreased”. The TNF-α gene expression [2] was “significantly decreased” and the IL-6 gene expression [3] was “significantly decreased”.
